The values that follow come from patent US12006350B2, “Triblock peptide amphiphiles, micelles and methods of use” (The Curators of the University of Missouri, priority 2017, dated 2024).

One data set concerns macrophages (MØs). Briefly: TNF-α secretion from LPS-activated MØs incubated with VIP materials. Type of data set: cell-based.
Data set [1] relates to dendritic cells (DCs). The experiment in a line: TNF-α secretion from LPS-activated DCs incubated with VIP materials. Type of data set: cell-based. Conditions: low (1 μM) or high (20 μM) concentration.
Method: (§1) The anti-inflammatory effect of VIPAMs were explored by incubating MOs and DCs with LPS and different VIP materials at low (i.e. 1 μM) or high (20 μM) concentrations (FIG. 41A, FIG. 41B, and FIG. 41C).
The test system of data set [2] is dendritic cells (DCs). Briefly: CD86 expression on DCs incubated with VIP materials. Type of data set: cell-based. Conditions: for CD86 expression on activated DCs: with LPS.
Method: as §1
Data set [3] has as its system dendritic cells (DCs). The experiment in a line: CCL22 production from DCs treated with VIP formulations. Type of data set: cell-based. Conditions: 24 hours; for DC CCL22 production: immature and mature DCs; for CCL22 production from immature DCs: vs no stimulus.
Method: Thus, CCL22 production from DCs treated with different VIP formulations was evaluated.
For data set [4] the following is noted: cited from earlier work.
A short description of data set [5]: Zeta potential measurement of the zwitterion-like peptide region alone. Type of data set: physicochemical. The source says: The alternating charge groups of (KE)4 at neutral pH can create local dipole moments that allow for intermicellar complexation yielding the observed twining behavior. At low pH and high pH utilized, not all of the glutamic acids or lysines will be protonated or deprotonated, respectively, but the local change in (KE)4 block charge is significant enough to repulse one another yielding individual thread-like micelles.

Data set [6] can be described thus: Micelle morphology and diameter by negative stain TEM. Type of data set: physicochemical. Conditions: concentrations above CMC. The method, then: Micelle morphology was assessed by negative stain transmission electron microscopy (TEM). TEM grids (200 mesh) with standard thickness carbon support films were purchased from Electron Microscopy Sciences and glow discharged for 45 seconds (Pelco Easiglow) to impart a negative charge. Product solutions (5 μL) were added to freshly glow-discharged films and incubated for 5 minutes. Filter paper was used to wick away excess solution and 5 μL of nanotungsten (Nanoprobes, Inc.) was immediately added. After 5 minute of incubation, grids were blotted dried and stored for later use. Samples were imaged with a JEOL JEM-1400 TEM at 120 kV for shape assessment. Tilt series images were collected at 200 kV, spot size 4, gun lens of 5, and extraction voltage of 3950 sA at a nominal 23,000× magnification with an underfocus of 1 sm. Tilt increments were collected every 2 degrees with a tilt range of ±70°, starting at 0°, with the negative half of the tilt series collected using FEI Xplore3D. Frames were aligned using IMOD with the patch-tracking algorithm using the entire imaged area for frame alignment and reconstructed with the weighted back projection algorithm. Micellar diameters were measured using ImageJ software (NIH). Three different spots from each micelle were measured and the results from three separate micelles were averaged for each group.

Data set [7] is described as follows: Critical micelle concentration (CMC) by DPH fluorescence. Conditions: VIP amphiphiles. Type of data set: physicochemical. The method, then: Critical micelle concentration (CMC) was measured indirectly by 1,6-diphenyl-1,3,5-hexatriene (DPH) fluorescence. […] Peptide amphiphile solutions were serially diluted in 1 μM 1,6-diphenyl-1,3,5 hexatriene (DPH) containing 0.01% THF and allowed to equilibrate for 1 hour prior to fluorescence measurement (ex. 350 nm, em. 428 nm) by a BioTek Cytation 5 fluorospectrophotometer. The resulting data was fit with two trend lines and the fluorescence inflection point was interpreted as the CMC (Table 4 and FIG. 23, FIG. 24, FIG. 25, FIG. 26, FIG. 27, FIG. 28, FIG. 29, and FIG. 30).
VIPA design and physical characterization: Based on our recent research, two VIPA chemistries were produced. The first VIPA was synthesized by directly conjugating palmitic acid (Palm) to the N-terminus of VIP to form Palm-VIP, […] (SEQ ID NO: 3), (pVIPA—FIG. 39A). The second VIPA included a zwitterion-like peptide region between Palm and VIP yielding PalmK-(EK)4-VIP, […] (SEQ ID NO: 4) (pzVIPA—FIG. 39B). […] While the addition of the hydrophilic block may have been expected to maintain or decrease the CMC, peptide folding to orient the most hydrophilic section externally can induce bending in the PA that may prevent straightforward micellar packing. […] This increased length is likely due to the intermicellar electrostatic complexation we have previously described for similar triblock PAs. […]

Data set [8] in a line: Micelle/peptide secondary structure by circular dichroism. Type of data set: physicochemical. Conditions: CD analysis; compared with VIP and pVIPA. On the procedure: Micelle secondary structure was investigated by circular dichroism using a circular dichroism spectrometer model 62DS (Aviv Biomedical, Inc., Lakewood, NJ). Micelle solutions (40 μM) were loaded into a 1 mm cuvette and measured a total of 10 times from 190 to 250 nm with an interval of 1 nm. The averaged data was curve fit using a linear combination of polylysine basis structures to calculate approximate α-helix, β-sheet, and random coil content.
(Circular dichroism is the unequal absorption of left and right circularly polarised light.)

For data set [9], the system named is dendritic cells (DCs). Conditions: after 48 hours of incubation; previous results; cited from earlier work.
Setting [10] is: low (1 μM) or high (20 μM) concentration.

No end group written: not given here. *: point of attachment. Palmitoyl = CCCCCCCCCCCCCCCC(=O)*

Method for macrophages (MØs): as §1

`CCCCCCCCCCCCCCCC(=O)O` [Palm, palmitic acid, reference compound]: the “TNF-α secretion from activated MØs” value in the data set on macrophages (MØs) (setting [10]) is on record as “no TNF-α nor CD86 regulation”. For the same molecule, the “TNF-α secretion from activated DCs” value in the data set on dendritic cells (DCs) [1] is “no TNF-α nor CD86 regulation”. Also, in the data set on dendritic cells (DCs) [2] (setting [10]), the “CD86 expression on activated DCs” value is “no TNF-α nor CD86 regulation”. In addition, the “DC CCL22 production” value in the data set with dendritic cells (DCs) [3] is “no impact on CCL22 induction”.

By pKa is commonly meant the negative logarithm of the acid dissociation constant. Regarding `N[C@@H](CCC(=O)O)C(=O)O` [glutamic acid], the pKa in data set [4] is reported as 4.07.

Consider “-Lys-Glu-Lys-Glu-Lys-Glu-Lys-Glu- (KEKEKEKE) [(KE)4]”, for which the “Zeta Potential” value in [5] (pH 2) is given as 31.4 ± 2.9 mV; in data set [5] (pH 7), −7.8 ± 1.2 mV; in [5] (pH 11) it was −18.1 ± 4.7 mV.

Regarding Palm-VIP [pVIPA], the micelle shape result in [6] is recorded as “cylindrical micelles”. For the same molecule, the “TNF-α secretion from activated MØs” value in the data set with macrophages (MØs) (setting [10]) was “unable to enhance the TNF-α suppressive effects of VIP”. Also, in the data set on dendritic cells (DCs) [1], the “TNF-α secretion from activated DCs” value is recorded as “completely nullified VIP effects”. Further, the “CD86 expression in immature DCs” value in the data set on dendritic cells (DCs) [2] (high concentration, no LPS) is listed as “significantly increased”. In addition, the “CD86 expression on activated DCs” value with dendritic cells (DCs) [2] (high concentration (20 μM)) is “enhanced”. Besides, the “CCL22 production from mature DCs” value in the data set on dendritic cells (DCs) [3] (high concentration, vs LPS-stimulated mature DC control) is “enhanced CCL22 production”. In addition, the “CCL22 production from immature DCs” value in the data set on dendritic cells (DCs) [3] (high concentration) is recorded as “induced greater CCL22 production”.

“PalmK-(EK)4-VIP (K(Palmitoyl)EKEKEKEKHSDAVFTDNYTRLRKQMAVKKYLNSILN-NH2; not fully specified) [pzVIPA]” gave a CMC in [7] of 9.3 µM. Also, the micelle shape result in data set [6] is recorded as “braided micelles”. Besides, the α-helical conformation result in data set [8] is recorded as “more abundant”. Besides, the “TNF-α secretion from activated MØs” value in the data set on macrophages (MØs) (effect only at high concentration (20 μM)) is on record as “nearly completely abrogated”. In the data set with dendritic cells (DCs) [1], the “TNF-α secretion from activated DCs” value is “maintained VIP-based TNF-α secretion”. In the data set with dendritic cells (DCs) [2] (no LPS), the “CD86 cell surface expression on immature DCs” value is given as “no increase”. Moreover, the “CD86 expression on activated DCs” value with dendritic cells (DCs) [2] (high concentration (20 μM)) is given as “significantly limited”. The “CCL22 production from immature DCs” value with dendritic cells (DCs) [3] (high concentration) is recorded as “induced greater CCL22 production”.

As for “Vasoactive intestinal peptide (HSDAVFTDNYTRLRKQMAVKKYLNSILN) [VIP, reference compound]”, in the data set with macrophages (MØs) (setting [10]), the “TNF-α secretion from activated MØs” value is “modestly reduce”. Besides, the “TNF-α secretion from activated DCs” value in the data set on dendritic cells (DCs) [1] was “modestly reduce”. In addition, the “CD86 expression on activated DCs” value with dendritic cells (DCs) [2] (setting [10]) is listed as “modestly reduce”. In addition, in the data set on dendritic cells (DCs) [3], the “DC CCL22 production” value is reported as “unable to induce”. For the same molecule, in the data set with dendritic cells (DCs) [9], the CCL22 production result is given as “induces significant CCL22 production”.
